This is an account of results in patent US8907080B2, “Process for imparting water solubility or water dispersibility to hydrophobic cluster compound” (Daiso Co., Ltd., priority 2009, dated 2014).

Data set [1] in a line: Solubilization of single-walled carbon nanotube. Format: physicochemical. The note with it: in water; estimated from absorbance at 500 nm. The method, then:
Preliminary dispersion was performed by dispersing 1.0 mg of a single-walled carbon nanotube (SWNT) (Carbon Nanotechnology, Inc.) in 0.5 mL of DMSO, and performing ultrasonic irradiation. An amount of 1.0 mL of AQUA β (DAISO Co., Ltd.) in a DMSO solution (2.0 mg/mL) was added and ultrasonic irradiation was further performed for 1 hour. The obtained dispersion was added to 1.5 mL of distilled water. To the dispersion, 35 mL of distilled water was further added and the solution was allowed to stand for one day to renature the AQUA β. It was observed by visual inspection that the solution was uniform at that point. Centrifugation (8,000 rpm, 60 minutes) was performed to recover the complex as a precipitate, the supernatant was removed, and the precipitate was redispersed in distilled water. This procedure was repeated 3 times for removal of uncombined polysaccharides and replacement of the solvent with water. Thus a solution in which the SWNT was dispersed in 5 mL of distilled water was obtained.
From the absorbance at 500 nm (Abs500=0.575), the concentration of the dissolved SWNT is estimated at […]. […] The improvement in the dispersibility seems to be attributed to the fact that AQUA β has a higher proportion of side chains than sizofuran.

Data set [2] can be described thus: Water solubilization of m-carborane by high speed vibration milling. Format: physicochemical. The procedure:
m-carborane was mixed with AQUA β (DAISO Co., Ltd.) or sizofuran (SPG) (Mitsui Sugar Co., Ltd.) in the predetermined amounts shown in Table 3 below. The mixture was placed with an agate milling ball in an agate milling jar, and high speed milling was performed with a mixer mill (MM200, Retsch Co., Ltd.) at 25 Hz for 25 minutes. Next, 10,000 parts by weight of water was added to 1 part by weight of the mixture, and the mixture was stirred with a magnetic stirrer at room temperature for two days and further agitated with a vortex mixer for 2 hours. Centrifugation (25° C., 14,000 rpm, 20 minutes) was performed, and the supernatant was filtrated through a 0.45 μm membrane filter. The boron concentration of the filtrate was measured with an ICP atomic emission spectrometer for evaluation of the degree of water solubility.

Some results are limits rather than exact numbers.

As to sizofiran, the “Concentration of the dissolved SWNT” value in data set [1] was 2500 µg/mL.

As for β-1,3-1,6-D-glucan [AQUA β], the “Boron concentration relative to solution prepared using sizofuran” value in data set [2] is on record as at least 3 times.
